# Source: paper PMC4472506 (Nature chemical biology, 2015)
# Legend:
# [1] = target: T1, BTK (Homo sapiens, UniProt Q06187); test: Biochemical residence time using fluorescence competition; assay type: binding; conditions: for residence time: read-out: BTK residence time τ
# [2] = target: T1, BTK; test: BTK cell occupancy using Alphascreen; assay type: cell-based
# [3] = target: T1, BTK; test: Dissociation of compound from BTK after guanidine-mediated unfolding; conditions: relative to samples without BTK
# [4] = target: EGFR (Homo sapiens, UniProt P00533); test: Enzymatic IC50 assay; assay type: biochemical
# Chain of EGFR (P00533 25-1210, species assumed): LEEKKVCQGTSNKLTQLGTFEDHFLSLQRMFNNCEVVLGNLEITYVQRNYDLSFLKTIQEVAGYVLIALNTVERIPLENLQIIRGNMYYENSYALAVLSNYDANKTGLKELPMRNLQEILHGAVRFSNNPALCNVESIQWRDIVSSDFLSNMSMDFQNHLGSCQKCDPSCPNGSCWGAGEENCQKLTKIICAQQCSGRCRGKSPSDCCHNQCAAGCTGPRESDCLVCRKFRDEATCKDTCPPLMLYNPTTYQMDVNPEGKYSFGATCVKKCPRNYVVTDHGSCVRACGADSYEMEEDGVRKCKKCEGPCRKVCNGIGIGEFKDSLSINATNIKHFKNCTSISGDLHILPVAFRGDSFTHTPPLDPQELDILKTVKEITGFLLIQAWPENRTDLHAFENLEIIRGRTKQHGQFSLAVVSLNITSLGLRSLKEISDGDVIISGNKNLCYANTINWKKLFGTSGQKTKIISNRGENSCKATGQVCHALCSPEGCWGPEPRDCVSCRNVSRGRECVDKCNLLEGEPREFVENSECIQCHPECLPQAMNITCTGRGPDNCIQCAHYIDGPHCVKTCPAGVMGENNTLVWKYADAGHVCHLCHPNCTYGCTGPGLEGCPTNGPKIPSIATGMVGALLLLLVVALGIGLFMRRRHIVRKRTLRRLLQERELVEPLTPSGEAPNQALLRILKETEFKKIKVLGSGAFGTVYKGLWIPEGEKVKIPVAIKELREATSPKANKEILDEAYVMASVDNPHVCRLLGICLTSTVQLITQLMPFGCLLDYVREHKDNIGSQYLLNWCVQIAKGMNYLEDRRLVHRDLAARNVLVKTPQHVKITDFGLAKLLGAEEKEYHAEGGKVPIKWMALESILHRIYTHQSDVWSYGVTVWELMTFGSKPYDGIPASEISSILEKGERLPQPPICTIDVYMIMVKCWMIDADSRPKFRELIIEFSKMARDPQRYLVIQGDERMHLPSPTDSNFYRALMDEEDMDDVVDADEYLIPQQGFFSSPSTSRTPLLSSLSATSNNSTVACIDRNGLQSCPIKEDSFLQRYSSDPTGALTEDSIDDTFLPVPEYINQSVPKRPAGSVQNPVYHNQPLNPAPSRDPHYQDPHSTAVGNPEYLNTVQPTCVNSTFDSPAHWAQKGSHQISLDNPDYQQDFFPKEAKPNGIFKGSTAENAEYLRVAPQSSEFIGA
# [5] = target: T2, ITK (Homo sapiens, UniProt Q08881); test: Enzymatic IC50 assay; assay type: biochemical
# T2 sequence (Q08881 1-620): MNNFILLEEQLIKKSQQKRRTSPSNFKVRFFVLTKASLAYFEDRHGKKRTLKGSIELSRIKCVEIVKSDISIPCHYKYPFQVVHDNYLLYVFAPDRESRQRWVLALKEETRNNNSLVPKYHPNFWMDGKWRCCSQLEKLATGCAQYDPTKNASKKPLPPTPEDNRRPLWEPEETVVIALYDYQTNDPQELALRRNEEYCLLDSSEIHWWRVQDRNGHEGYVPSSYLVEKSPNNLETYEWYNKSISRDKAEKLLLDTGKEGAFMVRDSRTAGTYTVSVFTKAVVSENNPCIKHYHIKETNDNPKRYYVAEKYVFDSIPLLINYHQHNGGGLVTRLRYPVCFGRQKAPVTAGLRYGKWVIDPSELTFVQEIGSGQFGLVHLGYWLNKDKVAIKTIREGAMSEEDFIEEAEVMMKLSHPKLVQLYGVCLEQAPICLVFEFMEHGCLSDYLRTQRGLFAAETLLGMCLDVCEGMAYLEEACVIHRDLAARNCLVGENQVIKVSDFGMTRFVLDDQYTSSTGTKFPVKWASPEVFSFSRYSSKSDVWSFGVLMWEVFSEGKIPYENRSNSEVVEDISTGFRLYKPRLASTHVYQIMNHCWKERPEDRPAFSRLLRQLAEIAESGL
# [6] = target: T3, JAK3 (Homo sapiens, UniProt P52333); test: Enzymatic IC50 assay; assay type: biochemical
# T3 sequence (P52333 1-1124): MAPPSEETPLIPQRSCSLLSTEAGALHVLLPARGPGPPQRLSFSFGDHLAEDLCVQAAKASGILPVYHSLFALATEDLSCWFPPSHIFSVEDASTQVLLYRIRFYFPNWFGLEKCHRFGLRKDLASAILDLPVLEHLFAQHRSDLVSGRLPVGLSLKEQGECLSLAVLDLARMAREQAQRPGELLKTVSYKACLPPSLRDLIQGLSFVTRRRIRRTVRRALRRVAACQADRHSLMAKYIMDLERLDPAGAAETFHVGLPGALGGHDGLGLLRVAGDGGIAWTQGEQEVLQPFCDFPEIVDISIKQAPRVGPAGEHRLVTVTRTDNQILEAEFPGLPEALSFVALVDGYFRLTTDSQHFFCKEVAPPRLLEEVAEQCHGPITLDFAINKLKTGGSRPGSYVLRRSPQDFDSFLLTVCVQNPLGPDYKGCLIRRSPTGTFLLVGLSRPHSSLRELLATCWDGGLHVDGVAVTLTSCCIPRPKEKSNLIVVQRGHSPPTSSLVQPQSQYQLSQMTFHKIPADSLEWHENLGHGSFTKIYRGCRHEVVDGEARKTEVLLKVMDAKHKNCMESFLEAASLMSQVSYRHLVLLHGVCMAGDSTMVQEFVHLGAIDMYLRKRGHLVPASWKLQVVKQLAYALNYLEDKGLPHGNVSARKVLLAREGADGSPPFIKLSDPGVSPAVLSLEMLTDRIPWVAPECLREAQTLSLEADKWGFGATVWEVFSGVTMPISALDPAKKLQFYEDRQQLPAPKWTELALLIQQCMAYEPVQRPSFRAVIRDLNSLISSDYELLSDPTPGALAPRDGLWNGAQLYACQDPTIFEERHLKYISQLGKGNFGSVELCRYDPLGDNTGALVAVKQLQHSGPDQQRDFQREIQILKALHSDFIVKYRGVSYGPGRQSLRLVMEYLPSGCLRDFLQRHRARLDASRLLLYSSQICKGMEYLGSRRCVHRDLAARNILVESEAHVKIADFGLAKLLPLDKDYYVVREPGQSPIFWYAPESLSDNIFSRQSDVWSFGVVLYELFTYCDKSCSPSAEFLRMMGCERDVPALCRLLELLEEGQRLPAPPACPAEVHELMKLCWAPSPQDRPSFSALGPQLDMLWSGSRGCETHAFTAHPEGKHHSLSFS
# [7] = Aqueous solubility; assay type: physicochemical
# [8] = Oral bioavailability; conditions: in vivo
# [9] = target: T1, BTK; test: Cellular durability
# T1 sequence (Q06187 whole entry): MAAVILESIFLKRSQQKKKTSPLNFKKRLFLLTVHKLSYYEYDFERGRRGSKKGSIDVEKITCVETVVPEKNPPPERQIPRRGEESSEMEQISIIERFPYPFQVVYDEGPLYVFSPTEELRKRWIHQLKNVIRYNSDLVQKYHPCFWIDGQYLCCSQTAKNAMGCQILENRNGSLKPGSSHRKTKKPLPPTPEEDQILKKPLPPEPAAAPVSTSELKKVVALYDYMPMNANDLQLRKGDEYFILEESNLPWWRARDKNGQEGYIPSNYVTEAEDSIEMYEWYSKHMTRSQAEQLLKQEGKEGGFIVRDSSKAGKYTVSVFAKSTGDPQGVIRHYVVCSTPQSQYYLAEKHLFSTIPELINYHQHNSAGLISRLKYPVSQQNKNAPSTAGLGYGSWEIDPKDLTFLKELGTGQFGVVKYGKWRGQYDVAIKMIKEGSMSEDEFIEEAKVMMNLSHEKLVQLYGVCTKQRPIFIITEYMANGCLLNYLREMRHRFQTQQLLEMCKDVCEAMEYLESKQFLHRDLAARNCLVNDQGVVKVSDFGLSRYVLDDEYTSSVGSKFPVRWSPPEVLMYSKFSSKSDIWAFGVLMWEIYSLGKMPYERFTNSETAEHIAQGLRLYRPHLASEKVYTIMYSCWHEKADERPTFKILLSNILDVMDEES
smiles,measurement,setting,value
CC(C)(C=C(C#N)C(=O)N1CCC[C@H]1Cn1nc(-c2ccc(Oc3ccccc3)cc2F)c2c(N)ncnc21)N1CCOCC1 [Compound 8],residence time,[1],4980 ± 840 min
same,IC50,[2],5 to 27 nM
C=CC(=O)N1CCC[C@@H]1Cn1nc(-c2ccc(Oc3ccccc3)cc2F)c2c(N)ncnc21 [PP-ir],residence time,[1],> 12000 min
same,BTK residence time τ,[1]; room temperature,no evident dissociation
same,IC50,[2],5 to 27 nM
"CC(C)(C)C=C(C#N)C(=O)N1CCC[C@@H](n2nc(-c3ccc(Oc4ccccc4)cc3)c3c(N)ncnc32)C1 [Compound 3, (R)-2-(3-(4-Amino-3-(4-phenoxyphenyl)-1H-pyrazolo[3,4-d]pyrimidin-1-yl)piperidine-1-carbonyl)-4,4-dimethylpent-2-enenitrile]",Recovery of compound after guanidine-mediated denaturation of BTK,[3],88 ± 10%
same,Selectivity for BTK over EGFR,[4],"> 1,000 fold"
same,Selectivity for BTK over ITK,[5],60 fold
same,Selectivity for BTK over JAK3,[6],"> 1,000 fold"
same,Solubility,[7],low solubility
same,Oral bioavailability,[8],poor oral bioavailability
same,receptor occupancy at 1 µM,"[9]; Ramos, read-out: BTK occupancy 20 hrs post-washout",55%
CC=C(C#N)C(=O)N1CCC[C@@H](n2nc(-c3ccc(Oc4ccccc4)cc3)c3c(N)ncnc32)C1 [Compound 1],BTK occupancy 20 hrs post-washout,"[9]; Ramos B cells, 1 μM, 1 hr, PP-BODIPY",negligible
